Results published in US20030149242A1, “Novel polypeptide” (Pfizer Inc., priority 1999, published 2003).

Experiments:
[1] = system: isolated human eosinophils; details: described by Raible et al. (1994); cited from earlier work
[2] = system: isolated human eosinophils; experiment: Human eosinophil chemotaxis assay (Boyden chamber) with histamine receptor subtype-selective agonists; type: cell-based; details: in vitro, agonist in bottom wells, 45 minutes, FIG. 9
Description: (§1) Eosinophils were isolated from peripheral blood as previously described (Hansel, T T., De Vries I J., Iff T., Rihs S., Wandzilak M., Betz S., Blaser K. and Walker C. (1991). An improved immunomagnetic procedure for the isolation of highly purified human blood eosinophils. J. Imm. Meth. 145:105-10). Chemotaxis was measured using a 48-well Boyden chamber (Neuro Probe Inc., Cabin John, Md., USA). Agonists were diluted in RPMI media (BioWhittaker, Walkersville, Md., USA) containing 0.1% bovine serum albumin (BSA) (Gibco BRL, Gaithersburg, Md., USA) and added to the bottom wells of the chemotaxis chamber. A 5 µm PVP-free polycarbonate filter was used to separate the wells of the chamber (Neuro Probe Inc., Cabin John, Md., USA). Eosinophils were resuspended in RPMI/BSA media at a concentration of 2.5×10^6 cells per ml. 50 µl of this cell suspension were then added to the upper chamber. Chambers were incubated for 45 minutes in a 5% CO2-humidified atmosphere at 37° C. After the incubation period, the filters were removed, the top side was scraped to remove non-migrating cells, and the filters were stained with Diff-Quik stain (Dade Behring AG, Dudingen, Switzerland). The number of cells migrating (bottom of filter) were counted by light microscopy. The mean of three high-powered fields was then determined. The number of migrating cells was calculated by subtracting […]. All compounds were purchased from Sigma-RBI.
Experiments were performed to characterise the histamine receptor subtype involved in the eosinophil chemotactic response to histamine. Methodology was as detailed above. […] Eotaxin was included as a positive control for eosinophil chemotaxis.

[3] = molecular target: T1, PFI-013 (Homo sapiens, UniProt Q9H3N8); experiment: FLIPR functional cell-based assay (intracellular calcium) in PFI-013-transfected HEK293 cells expressing mouse Gα15; set-up: expressed in transfected cells; host or cells: HEK293 cells expressing mouse Gα15, transient transfection; details: for activation of PFI-013 by histaminergic compounds: FIG. 8, rank order of potency N-α-methyl histamine > histamine > R-α-methyl histamine = histamine-1-methyl
Description: Fluorescence Imaging Plate Reader (FLIPR®) technology was employed as a means to detect activation of PFI-013 by histamine or histamine agonists in a cell-based assay.
5×10^6 Human Embryonic Kidney (HEK) 293 cells expressing the mouse Gα15 gene (from here on called ‘293 cells’), were transiently transfected with 7.5 μg of PFI-013 (contained within the pcDNA4HISmaxB (Invitrogen) plasmid) vector, or vector alone, using Lipofectamine Plus® reagent (Gibco BRL) as per the manufacturer's protocol. The PFI-013 cDNA had been cloned into pcDNA4HISmaxB using restriction sites KpnI and NotI to excise the PFI-013 cDNA from pcDNA3.1/V5-His-TOPO and to insert the cDNA into pcDNA4HISmaxB using standard molecular biology techniques (e.g. according to Sambrook, et al., eds. (1989) Molecular Cloning: A Laboratory Manual, Cold Spring Harbor Laboratory Press, New York, N.Y., USA) and using T4 DNA ligase to join the fragments; pcDNA4HISmaxB was used as it contains elements that up-regulate the level of gene transcription over standard pcDNA3.1 vectors). 24 hrs post-transfection, the cells were detached from the flask using Trypsin/EDTA solution (LTI) and seeded into a black sided, Poly-D-lysine-treated, 96-well plate (Becton Dickinson) at 5×10^4 cells/well density. The plates were left overnight to allow the cells to adhere to the bottom of the wells. The medium was removed from the cells and replaced with 100 μl warm (37° C.) dye loading solution (50 μg Fluo3 (Molecular probes) in 20 μl DMSO+20% pluronic acid in DMSO, added to 11 ml Dulbecco's Modified Eagles Medium containing 1×Probenecid (100×Probenecid—0.71 g Probenecid was dissolved in 5 ml 1M NaOH and 5 ml Dulbeccos' Phosphate Buffered Saline (PBS), per plate; Probenecid (Molecular Devices) inhibits activity of the anion transport protein, thus improving dye loading). The plates were then incubated for 1 hr at 37° C. Plates were subsequently washed with 250 μl of wash buffer per well (5 ml 100×Probenecid stock+495 ml PBS, pH 7.4) 4 times. The plates were returned to the 37° C./5% CO2 incubator for 30 mins prior to processing within the FLIPR® instrument. The FLIPR® processing involved reading the fluorescence for all samples for 2 minutes; during this time the fluorescence baseline was determined for 10 seconds. The desired amount of compound (i.e. histamine or histamine agonists) was then automatically transferred to the wells and the fluorescence was continuously monitored for the remainder of the time. All compounds were diluted in wash buffer.
Using methodology as described in detail above, the effect of histamine on the functional activation of PFI-013 was investigated.
Using methodology as described in detail above, the effect of histaminergic compounds on the functional activation of PFI-013 was investigated.
FIG. 8 depicts the action of various histaminergic compounds (columns 2 to 10) serially diluted from […] (rows A and B) down to 0.5 μM in duplicate (rows G and H), on PFI-013-transfected 293 cells (FIG. 8A) or vector-only transfected 293 cells (FIG. 8B). Remaining wells contained buffer only with no compound.

[4] = system: isolated human eosinophils; experiment: Inhibition of histamine-induced chemotaxis of IL-5-primed human eosinophils; type: cell-based; details: for IC50: Homo sapiens, Eosinophil, histamine 30 nM as agonist, antagonists at 10, 1 and 0.1 μM, preliminary results, FIG. 10C, read-out: IC50 for antagonising histamine-induced chemotaxis of human eosinophils; for reduction of the chemotactic response of isolated human eosinophils to histamine dihydrochloride: antagonists at a single concentration of 10 μM, IL-5-primed eosinophils, FIG. 10B
Description: as §1
Antagonist experiments were performed to further characterise the histamine receptor subtype involved in the eosinophil chemotactic response to histamine. […] Antagonists were used at a single concentration of 10 μM. Antagonists tested were: mepyramine maleate (histamine H1 antagonist), cimetidine (histamine H2 antagonist), thioperamide (histamine H3 antagonist) and clobenpropit (histamine H3 antagonist).
A further experiment was performed to determine the IC50 of both thioperamide and clobenpropit (histamine H3 antagonists) for inhibiting isolated human eosinophil in vitro chemotaxis. Methodology was as above, using thioperamide and clobenpropit at 10 μM, 1 μM and 0.1 μM concentrations (Histamine, as the agonist, was used at 30 nM).

[5] = molecular target: T1, PFI-013; details: 3H-histamine 0.72-1500 nM; difference between PFI-013-transfected and mock-transfected CHO-K1 membranes; preliminary data, FIG. 6

T1 sequence (Q9H3N8 whole entry): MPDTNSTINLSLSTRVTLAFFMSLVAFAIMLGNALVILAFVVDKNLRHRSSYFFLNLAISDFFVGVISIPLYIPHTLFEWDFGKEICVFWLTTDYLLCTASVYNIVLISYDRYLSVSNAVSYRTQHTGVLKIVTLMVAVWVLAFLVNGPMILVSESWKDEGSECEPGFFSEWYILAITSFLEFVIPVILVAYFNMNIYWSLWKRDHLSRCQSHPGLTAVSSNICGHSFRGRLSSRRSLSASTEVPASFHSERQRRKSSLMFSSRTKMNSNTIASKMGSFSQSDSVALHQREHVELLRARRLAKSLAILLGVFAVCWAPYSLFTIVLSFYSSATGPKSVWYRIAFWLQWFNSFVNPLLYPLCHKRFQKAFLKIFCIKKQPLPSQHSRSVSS

## CNC(=S)NCCCCc1cnc[nH]1 [Burimamide]
[1]
  effect on intracellular Ca2+ production in isolated human eosinophils: partial agonist effect
[2]
  chemotactic response of isolated human eosinophils: displayed no chemotactic activity

## CN(C)CCCSC(=N)N [Dimaprit]
[3]
  activation of PFI-013 by histaminergic compounds: no activation of PFI-013 could be detected
[2]
  chemotactic response of isolated human eosinophils: displayed no chemotactic activity

## CC(CCCCC(=O)Nc1ccc(C(F)(F)F)cc1)NCCc1cnc[nH]1.O=C(O)/C=C\C(=O)O.O=C(O)/C=C\C(=O)O (stereo not shown) [HTMT, HTMT dimaleate]
[2]
  chemotactic response of isolated human eosinophils: very weak chemotactic response only at the highest concentration tested (1 μM)

## N=C(N)SCCc1cnc[nH]1 [Imetit]
[3]
  activation of PFI-013 by histaminergic compounds: no activation of PFI-013 could be detected
[2]
  chemotactic response of isolated human eosinophils: displayed no chemotactic activity

## N[C@@H](Cc1c[nH]cn1)C(=O)O [L-histidine]
[3]
  activation of PFI-013 by histaminergic compounds: no activation of PFI-013 could be detected

## CNCCc1cnc[nH]1 [N-α-methyl histamine]
[3]
  activation of PFI-013 by histaminergic compounds: activated

## C[C@@H](N)Cc1c[nH]cn1 [R-α-methyl histamine]
[3]
  activation of PFI-013 by histaminergic compounds: activated

## NC(=NCc1ccc(Cl)cc1)SCCCc1cnc[nH]1 [clobenpropit]
[4]
  IC50: 1.5 µM
  reduction of the chemotactic response of isolated human eosinophils to histamine dihydrochloride: greatest effect on the reduction of the chemotactic response
[3]
  activation of PFI-013 by histaminergic compounds: no activation of PFI-013 could be detected

## Cl.Cl.NCCc1c[nH]cn1 [histamine dihydrochloride]
[2]
  chemotactic response of isolated human eosinophils: induced a significant chemotactic response

## Cn1cnc(CCN)c1 [histamine-1-methyl]
[3]
  activation of PFI-013 by histaminergic compounds: activated

## NCCc1c[nH]cn1 [histamine]
[3]
  activation of PFI-013 by histaminergic compounds: activated
[3]; at the 10 μM concentration, tested 10 μM serially diluted in log steps down to 10 pM, versus vector-only cells, FIG. 7
  activation of PFI-013 by histamine (transient increase in intracellular calcium): specific activation of PFI-013
[5]
  binding of histamine to PFI-013: binds to PFI-013, albeit with relatively low affinity

## COc1ccc2c(c1OC)C(=O)O[C@@H]2[C@H]1c2c(cc3c(c2OC)OCO3)CCN1C [noscapine]
[3]
  activation of PFI-013 by histaminergic compounds: no activation of PFI-013 could be detected

## S=C(NC1CCCCC1)N1CCC(c2cnc[nH]2)CC1 [thioperamide]
[4]
  IC50: 0.83 µM
  reduction of the chemotactic response of isolated human eosinophils to histamine dihydrochloride: greatest effect on the reduction of the chemotactic response

## IL-5: interleukin-5, used to prime the eosinophils for chemotaxis studies
[4]; IL-5 pretreatment of the eosinophils, FIG. 10A
  effect of IL-5 priming of eosinophils on the chemotactic response to histamine: enhance the chemotactic response to histamine
